Reference: patent publication US20250186437A1, “CARBOLINE COMPOUNDS AND USE THEREOF” (PTC Therapeutics, Inc., priority 2021, published 2025)

Tested on: MOLM-13 cells
Assay: MOLM-13 Cell Proliferation Assay (indicator of DHODH inhibition)
Format: cell-based
Settings: Homo sapiens, 72 Hours of culture, CellTiter-Glo, no uridine
Procedure, shortened: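 Proliferation readout via CellTiter-Glo luminescence after 72 h compound treatment (37 °C, 5% CO2, 0.5% DMSO) of MOLM-13 cells seeded at 10^4 per well in RPMI 1640/10% FBS, used as a DHODH-inhibition indicator since these cells rely on de novo pyrimidine synthesis.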

Row | Structure (SMILES) | IC50 [nM]
1 | Cc1ccc(C2c3[nH]c4ccc(Cl)cc4c3CCN2c2nc(C)nc(C)n2)c(F)c1 (stereo not shown) [Compound 452, 6-chloro-2-(4,6-dimethyl-1,3,5-triazin-2-yl)-1-(2-fluoro-4-methylphenyl)-2,3,4,9-tetrahydro-1H-pyrido[3,4-b]indole] | 5.1
2 | Cc1nc(C)nc(N2CCc3c([nH]c4ccc(Cl)cc34)C2c2ccc(C#N)cc2F)n1 (stereo not shown) [Compound 453, 4-[6-chloro-2-(4,6-dimethyl-1,3,5-triazin-2-yl)-2,3,4,9-tetrahydro-1H-pyrido[3,4-b]indol-1-yl]-3-fluorobenzonitrile] | 4.9
3 | FC(F)(F)c1cc(C(F)(F)F)nc(N2CCc3c([nH]c4ccc(-n5nccn5)cc34)C2c2ccc(N3CCOCC3)nc2)n1 (stereo not shown) [Compound 454, 2-[4,6-bis(trifluoromethyl)pyrimidin-2-yl]-1-[6-(morpholin-4-yl)pyridin-3-yl]-6-(2H-1,2,3-triazol-2-yl)-2,3,4,9-tetrahydro-1H-pyrido[3,4-b]indole] | 0.7
4 | Cc1cnn(-c2ccc3[nH]c4c(c3c2)CCN(c2nc(C(F)(F)F)cc(C(F)(F)F)n2)C4c2ccc(N3CCOCC3)nc2)n1 (stereo not shown) [Compound 455, 2-[4,6-bis(trifluoromethyl)pyrimidin-2-yl]-6-(4-methyl-2H-1,2,3-triazol-2-yl)-1-[6-(morpholin-4-yl)pyridin-3-yl]-2,3,4,9-tetrahydro-1H-pyrido[3,4-b]indole] | 5.2
5 | FC1(F)CN(c2ccnc(N3CCc4c([nH]c5ccc(Cl)cc45)[C@@H]3c3cnc(N4CCOCC4)nc3)n2)C1 [Compound 456, (1S)-6-chloro-2-[4-(3,3-difluoroazetidin-1-yl)pyrimidin-2-yl]-1-[2-(morpholin-4-yl)pyrimidin-5-yl]-2,3,4,9-tetrahydro-1H-pyrido[3,4-b]indole] | 17.1
6 | Cc1nc(N2CC(F)(F)C2)nc(N2CCc3c([nH]c4ccc(Cl)cc34)[C@@H]2c2cnc(N3CCOCC3)nc2)n1 [Compound 457, (1S)-6-chloro-2-[4-(3,3-difluoroazetidin-1-yl)-6-methyl-1,3,5-triazin-2-yl]-1-[2-(morpholin-4-yl)pyrimidin-5-yl]-2,3,4,9-tetrahydro-1H-pyrido[3,4-b]indole] | 5.8
7 | FC(F)(F)c1cnc(N2CCc3c([nH]c4ccc(Cl)cc34)C2c2cnc(N3CCOCC3)nc2)nn1 (stereo not shown) [Compound 458, 6-chloro-1-[2-(morpholin-4-yl)pyrimidin-5-yl]-2-[6-(trifluoromethyl)-1,2,4-triazin-3-yl]-2,3,4,9-tetrahydro-1H-pyrido[3,4-b]indole] | 4.6
8 | Cc1nc(C)nc(N2CCc3c([nH]c4ccc(Cl)cc34)C2c2ccc(N3CCOCC3)nc2F)n1 (stereo not shown) [Compound 459, 6-chloro-2-(4,6-dimethyl-1,3,5-triazin-2-yl)-1-[2-fluoro-6-(morpholin-4-yl)pyridin-3-yl]-2,3,4,9-tetrahydro-1H-pyrido[3,4-b]indole] | 3
9 | Cc1ccc([C@H]2c3[nH]c4ccc(Cl)cc4c3CCN2c2ncnc(C(F)(F)F)n2)c(F)c1F [Compound 461, (1S)-6-chloro-1-(2,3-difluoro-4-methylphenyl)-2-[4-(trifluoromethyl)-1,3,5-triazin-2-yl]-2,3,4,9-tetrahydro-1H-pyrido[3,4-b]indole] | 0.8
10 | Cc1ccc([C@H]2c3[nH]c4ccc(Cl)cc4c3CCN2c2ncc(Br)cn2)c(F)c1F [Compound 463, (1S)-2-(5-bromopyrimidin-2-yl)-6-chloro-1-(2,3-difluoro-4-methylphenyl)-2,3,4,9-tetrahydro-1H-pyrido[3,4-b]indole] | 1.1
11 | Cc1nc(N2CCc3c([nH]c4ccc(Cl)cc34)[C@@H]2c2ccc(C)c(F)c2F)nc(C(F)(F)F)n1 [Compound 464, (1S)-6-chloro-1-(2,3-difluoro-4-methylphenyl)-2-[4-methyl-6-(trifluoromethyl)-1,3,5-triazin-2-yl]-2,3,4,9-tetrahydro-1H-pyrido[3,4-b]indole] | 0.2
12 | Cc1nc(N2CCc3c([nH]c4ccc(Cl)cc34)[C@@H]2c2ccc(N3CCOCC3)nc2)nc(C(F)(F)F)n1 [Compound 465, (1S)-6-chloro-2-[4-methyl-6-(trifluoromethyl)-1,3,5-triazin-2-yl]-1-[6-(morpholin-4-yl)pyridin-3-yl]-2,3,4,9-tetrahydro-1H-pyrido[3,4-b]indole] | 0.6
13 | Cc1nc(N2CCc3c([nH]c4ccc(Cl)cc34)[C@@H]2c2cnc(N3CCOCC3)nc2)nc(C(F)(F)F)n1 [Compound 466, (1S)-6-chloro-2-[4-methyl-6-(trifluoromethyl)-1,3,5-triazin-2-yl]-1-[2-(morpholin-4-yl)pyrimidin-5-yl]-2,3,4,9-tetrahydro-1H-pyrido[3,4-b]indole] | 0.9
14 | Cc1ccc([C@H]2c3[nH]c4ccc(Cl)cc4c3CCN2c2nc(C)nc(C(F)(F)F)n2)cc1 [Compound 467, (1S)-6-chloro-1-(4-methylphenyl)-2-[4-methyl-6-(trifluoromethyl)-1,3,5-triazin-2-yl]-2,3,4,9-tetrahydro-1H-pyrido[3,4-b]indole] | 0.7
15 | Cc1nc(C)nc(N2CCc3c([nH]c4ccc(Cl)cc34)C2c2ccc(Cl)cc2F)n1 (stereo not shown) [Compound 468, 6-chloro-1-(4-chloro-2-fluorophenyl)-2-(4,6-dimethyl-1,3,5-triazin-2-yl)-2,3,4,9-tetrahydro-1H-pyrido[3,4-b]indole] | 5.2
16 | Cc1ccc(C2c3[nH]c4ccc(Cl)cc4c3CCN2c2nccc(-c3ccccc3)n2)c(F)c1F (stereo not shown) [Compound 469, 6-chloro-1-(2,3-difluoro-4-methylphenyl)-2-(4-phenylpyrimidin-2-yl)-2,3,4,9-tetrahydro-1H-pyrido[3,4-b]indole] | 4
17 | Clc1ccc2[nH]c3c(c2c1)CCN(c1ncc(Br)cn1)[C@H]3c1cnc(N2CCOCC2)nc1 [Compound 470, (1S)-2-(5-bromopyrimidin-2-yl)-6-chloro-1-[2-(morpholin-4-yl)pyrimidin-5-yl]-2,3,4,9-tetrahydro-1H-pyrido[3,4-b]indole] | 3.1
18 | Cc1ccc([C@H]2c3[nH]c4ccc(Cl)cc4c3CCN2c2ncc(-c3ccccc3)cn2)c(F)c1F [Compound 471, (1S)-6-chloro-1-(2,3-difluoro-4-methylphenyl)-2-(5-phenylpyrimidin-2-yl)-2,3,4,9-tetrahydro-1H-pyrido[3,4-b]indole] | 2.5
19 | Clc1ccc2[nH]c3c(c2c1)CCN(c1ncc(-c2ccccc2)cn1)[C@H]3c1cnc(N2CCOCC2)nc1 [Compound 472, (1S)-6-chloro-1-[2-(morpholin-4-yl)pyrimidin-5-yl]-2-(5-phenylpyrimidin-2-yl)-2,3,4,9-tetrahydro-1H-pyrido[3,4-b]indole] | 4.1
20 | FC(F)(F)c1ccnc(N2CCc3c([nH]c4ccc(Cl)cc34)[C@@H]2c2ccc(N3CCOCC3)nc2)n1 [Compound 473, (1S)-6-chloro-1-[6-(morpholin-4-yl)pyridin-3-yl]-2-[4-(trifluoromethyl)pyrimidin-2-yl]-2,3,4,9-tetrahydro-1H-pyrido[3,4-b]indole] | 1
21 | CSc1nc(N2CCc3c([nH]c4ccc(Cl)cc34)[C@@H]2c2cnc(N3CCN(C)CC3)nc2)nc(C(F)(F)F)n1 [Compound 474, (1S)-6-chloro-1-[2-(4-methylpiperazin-1-yl)pyrimidin-5-yl]-2-[4-(methylsulfanyl)-6-(trifluoromethyl)-1,3,5-triazin-2-yl]-2,3,4,9-tetrahydro-1H-pyrido[3,4-b]indole] | 2.1
22 | Clc1ccc2[nH]c3c(c2c1)CCN(c1nccc(-c2ccccc2)n1)C3c1cnc(N2CCOCC2)nc1 (stereo not shown) [Compound 475, 6-chloro-1-[2-(morpholin-4-yl)pyrimidin-5-yl]-2-(4-phenylpyrimidin-2-yl)-2,3,4,9-tetrahydro-1H-pyrido[3,4-b]indole] | 116
23 | Cc1ccc([C@H]2c3[nH]c4ccc(Cl)cc4c3CCN2c2nc(F)nc(N3CCN(C)CC3)n2)c(F)c1F [Compound 476, (1S)-6-chloro-1-(2,3-difluoro-4-methylphenyl)-2-[4-fluoro-6-(4-methylpiperazin-1-yl)-1,3,5-triazin-2-yl]-2,3,4,9-tetrahydro-1H-pyrido[3,4-b]indole] | 7.6
24 | Cc1ccc([C@H]2c3[nH]c4ccc(Cl)cc4c3CCN2c2nc(N3CCN(C)CC3)nc(C(F)(F)F)n2)c(F)c1F [Compound 477, (1S)-6-chloro-1-(2,3-difluoro-4-methylphenyl)-2-[4-(4-methylpiperazin-1-yl)-6-(trifluoromethyl)-1,3,5-triazin-2-yl]-2,3,4,9-tetrahydro-1H-pyrido[3,4-b]indole] | 1.1
25 | CN1CCN(c2nc(N3CCc4c([nH]c5ccc(Cl)cc45)[C@@H]3c3cnc(N4CCOCC4)nc3)nc(C(F)(F)F)n2)CC1 [Compound 478, (1S)-6-chloro-2-[4-(4-methylpiperazin-1-yl)-6-(trifluoromethyl)-1,3,5-triazin-2-yl]-1-[2-(morpholin-4-yl)pyrimidin-5-yl]-2,3,4,9-tetrahydro-1H-pyrido[3,4-b]indole] | 9.5
26 | CN1CCN(c2ncc([C@H]3c4[nH]c5ccc(Cl)cc5c4CCN3c3nc(N4CCN(C)CC4)nc(C(F)(F)F)n3)cn2)CC1 [Compound 479, (1S)-6-chloro-1-[2-(4-methylpiperazin-1-yl)pyrimidin-5-yl]-2-[4-(4-methylpiperazin-1-yl)-6-(trifluoromethyl)-1,3,5-triazin-2-yl]-2,3,4,9-tetrahydro-1H-pyrido[3,4-b]indole] | 66.1
27 | CN1CCN(c2ccc([C@H]3c4[nH]c5ccc(Cl)cc5c4CCN3c3nccc(C(F)(F)F)n3)cn2)CC1 [Compound 480, (1S)-6-chloro-1-[6-(4-methylpiperazin-1-yl)pyridin-3-yl]-2-[4-(trifluoromethyl)pyrimidin-2-yl]-2,3,4,9-tetrahydro-1H-pyrido[3,4-b]indole] | 3.2
28 | CN1CCN(c2ccc([C@H]3c4[nH]c5ccc(Cl)cc5c4CCN3c3nc(C(F)(F)F)cc(C(F)(F)F)n3)cn2)CC1 [Compound 481, (1S)-2-[4,6-bis(trifluoromethyl)pyrimidin-2-yl]-6-chloro-1-[6-(4-methylpiperazin-1-yl)pyridin-3-yl]-2,3,4,9-tetrahydro-1H-pyrido[3,4-b]indole] | 0.6
